Reference: patent US20180133343A1, “NANOPARTICLE CONJUGATES AND USES THEREOF” (Massachusetts Institute of Technology, priority 2016, published 2018)

System: CD8+ T cells
Assay: Drug concentration in CD8+ T cells after in vitro incubation
Assay type: cell-based
Conditions: free drug at 10-fold higher dose, compared to drug-loaded nanoparticles

Cc1cccc(-c2[nH]c(C(C)(C)C)nc2-c2ccc3nccnc3c2)n1 [SB525334]
drug/cell ratio: lower drug/cell ratio
